Measured values: patent US12030865B2, “Pesticidal mixtures comprising indazoles” (FMC Corporation, priority 2018, dated 2024)

Key:
Format in all cases: in vivo
[1] = test system: green peach aphid (Myzus persicae (Sulzer)); experiment: Test A: control of green peach aphid on pre-infested radish plant, spray; settings: 144 h, visually assessed after 6 days; for mortality at 50 ppm: sprayed at 50 ppm; for mortality at 250 ppm: sprayed at 250 ppm
Procedure: (§1) Test compounds were formulated using a solution containing 10% acetone, 90% water and 300 ppm X-77® Spreader Lo-Foam Formula non-ionic surfactant containing alkylarylpolyoxyethylene, free fatty acids, glycols and isopropanol (Loveland Industries, Inc. Greeley, Colorado, USA). The formulated compounds were applied in 1 mL of liquid through a SUJ2 atomizer nozzle with 1/8 JJ custom body (Spraying Systems Co. Wheaton, Illinois, USA) positioned 1.27 cm (0.5 inches) above the top of each test unit. Test compounds were sprayed at the rates indicated, and each test was replicated three times.
For evaluating control of green peach aphid (Myzus persicae (Sulzer)) through contact and/or systemic means, the test unit consisted of a small open container with a 12-15-day-old radish plant inside. This was pre-infested by placing on a leaf of the test plant 30-40 aphids on a piece of leaf excised from a culture plant (cut-leaf method). The aphids moved onto the test plant as the leaf piece desiccated. After pre-infestation, the soil of the test unit was covered with a layer of sand.
Test compounds were formulated and sprayed at 250 and/or 50 ppm. After spraying of the formulated test compound, each test unit was allowed to dry for 1 hour and then a black, screened cap was placed on top. The test units were held for 6 days in a growth chamber at 19-21° C. and 50-70% relative humidity. Each test unit was then visually assessed for insect mortality.

[2] = test system: cotton melon aphid (Aphis gossypii (Glover)); experiment: Test B: control of cotton melon aphid on pre-infested cotton plant, spray; settings: 144 h, sprayed at 50 ppm, visually assessed after 6 days
Procedure: as §1
For evaluating control of cotton melon aphid (Aphis gossypii (Glover)) through contact and/or systemic means, the test unit consisted of a small open container with a 6-7-day-old cotton plant inside. This was pre-infested with 30-40 insects on a piece of leaf according to the cut-leaf method, and the soil of the test unit was covered with a layer of sand.
Test compounds were formulated and sprayed at 250 and/or 50 ppm. After spraying, the test units were maintained in a growth chamber for 6 days at 19° C. and 70% relative humidity. Each test unit was then visually assessed for insect mortality.

[3] = test system: sweetpotato whitefly (Bemisia tabaci (Gennadius)); experiment: Test C: control of sweetpotato whitefly on egg-infested cotton plant, spray; settings: 312 h, cotton plant with eggs, visually assessed after 13 days; for mortality at 250 ppm: sprayed at 250 ppm
Procedure: as §1
For evaluating control of the sweetpotato whitefly (Bemisia tabaci (Gennadius)) through contact and/or systemic means, the test unit consisted of a small open container with a 12-14-day-old cotton plant inside. Prior to the spray application, both cotyledons were removed from the plant, leaving one true leaf for the assay. Adult whiteflies were allowed to lay eggs on the plant and then were removed from the test unit. Cotton plants infested with at least 15 eggs were submitted to the test for spraying.
Test compounds were formulated and sprayed at 250 and/or 50 ppm. After spraying, the test units were allowed to dry for 1 hour. The cylinders were then removed, and the units were taken to a growth chamber and held for 13 days at 28° C. and 50-70% relative humidity. Each test unit was then visually assessed for insect mortality.

[4] = test system: Western Flower Thrips (Frankliniellla occidentalis (Pergande)); experiment: Test D: control of Western Flower Thrips on Soleil bean plant, spray; settings: adult thrips, held 6 days
Procedure: as §1
For evaluating control of the Western Flower Thrips (Frankliniellla occidentalis (Pergande)) through contact and/or systemic means, the test unit consisted of a small open container with a 5-7-day-old Soleil bean plant inside.
Test compounds were formulated and sprayed at 250 and/or 50 ppm. After spraying, the test units were allowed to dry for 1 hour, and then 22-27 adult thrips were added to each unit. A black, screened cap was placed on top, and the test units were held for 6 days at 25° C. and 45-55% relative humidity.

| Structure (SMILES) | mortality at 50 ppm [1] [%] | mortality at 50 ppm [2] [%] | mortality at 250 ppm [3] [%] | control efficacy (30% or less plant damage and/or 100% mortality) ([4]; sprayed at 50 ppm) | control efficacy (30% or less plant damage and/or 100% mortality) ([4]; sprayed at 250 ppm) | mortality at 250 ppm [1] [%] | mortality at 50 ppm ([3]; sprayed at 50 ppm) [%] |
| --- | --- | --- | --- | --- | --- | --- | --- |
| C[S+]([O-])CC(C)(C)NC(=O)c1ccc(F)c2nn(-c3cccnc3)cc12 (stereo not shown) [Compound 2b, N-[1,1-dimethyl-2-(methylsulfinyl)ethyl]-7-fluoro-2-(3-pyridinyl)-2H indazole-4-carboxamide] | ≥ 80 | ≥ 80 | ≥ 50 | very good to excellent levels of control efficacy | very good to excellent levels of control efficacy |  |  |
| CSCC(C)(C)NC(=O)c1ccc(F)c2nn(-c3cccnc3)cc12 [Compound 2a, N-[1,1-dimethyl-2-(methylthio)ethyl]-7-fluoro-2-(3-pyridinyl)-2H-indazole-4-carboxamide] | ≥ 80 | ≥ 80 |  | very good to excellent levels of control efficacy | very good to excellent levels of control efficacy | ≥ 80 |  |
| O=C(NC1(C(F)F)CC1)c1cccc2nn(-c3cccnc3)cc12 [Compound 1, N-[1-(difluoromethyl)cyclopropyl]-2-(3-pyridinyl)-2H-indazole-4-carboxamide] | ≥ 80 | ≥ 80 | ≥ 50 | very good to excellent levels of control efficacy | very good to excellent levels of control efficacy | ≥ 80 | ≥ 50 |
| CC(C)(CS(C)(=O)=O)NC(=O)c1ccc(F)c2nn(-c3cccnc3)cc12 [Compound 2c, N-[1,1-dimethyl-2-(methylsulfonyl)ethyl]-7-fluoro-2-(3-pyridinyl)-2H indazole-4-carboxamide] | ≥ 80 | ≥ 80 |  |  |  |  |  |
